Source: publication PMC8698377, “In Vitro Hepatic Assessment of Cineole and Its Derivatives in Common Brushtail Possums (Trichosurus vulpecula) and Rodents” (Biology, 2021)

Tests used:
UGT [1] = assay: p-nitrophenol glucuronidation, possum hepatic microsomes; type: in vitro ADME, possum (Trichosurus vulpecula)
Experimental: (§1) Microsomal preparation was as previously outlined. Individual livers were placed in beakers containing 1.15% KCl. All the procedures were carried out at 0–4 °C. The liver samples were minced and homogenised in buffer A (0.1 M Tris, 0.1 M potassium chloride, 1 mM EDTA, and 20 μM butylated hydroxytoluene, at pH = 7.4) using the Teflon-glass homogeniser (5–6 vertical passes). The samples were centrifuged for 20 min at 10,000× g. The supernatant was then transferred into another set of centrifuge tubes and spun for 60 min at 100,000× g. The pellet was resuspended in Buffer B (0.1 M potassium pyrophosphate, 1 mM EDTA, and 20 μM butylated hydroxytoluene, at pH = 7.4), homogenised and recentrifuged for 60 min at 100,000× g. Finally, the pellet was homogenised in 1–2 mL of Buffer C (10 mM Tris-HCl, 1 mM EDTA, and 4% glycerol (v/v)) and stored at […] until used. The protein concentration of the microsomes was determined using the Bicinchoninic acid (BCA) method.
(§2) The rate of p-nitrophenol glucuronidation was determined as previously reported. In short, the incubation mixture (500 µL in total) contained; 100 µL of 1 mg/mL microsomes, 50 µL of 1 M Tris-HCl (pH = 7.4), 20 µL of 0.25% (v/v) Triton-X 100, 50 µL of 50 mM MgCl2, 130 µL of double distilled water, 50 µL of 5 mM p-nitrophenol, 50 µL of the test compound, and 50 µL of uridine 5′-diphosphoglucuronic acid trisodium salt (UDPGA). The blank tubes had all components except UDPGA and microsomes; instead, 150 µL of 0.1 M phosphate buffer was added to equal the volume as the reaction mixture. The reaction mixture and the blank were incubated at 37 °C for 2 min. Then, 50 µL of 30 mM UDPGA was added to initiate the reaction which proceeded at 37 °C for 30 min (optimised incubation time). The reaction was stopped using 1 mL of 5% trichloroacetic acid (TCA). The tubes were centrifuged at 1800 g for 10 min and then 1 mL of supernatant was added to 250 µL of 2 M sodium hydroxide (NaOH). The absorbance was read at 405 nm. The sample reading was subtracted from the blank absorbance and divided by the extinction coefficient of p-nitrophenol ([…]) and the light path of the spectrophotometer (1 cm). The glucuronidation activities are expressed in µmol/mg/min and are the mean ± SEM of 3 independent experiments conducted in duplicate.

UGT [2] = assay: p-nitrophenol glucuronidation, mouse hepatic microsomes; type: in vitro ADME
Experimental: as §1, §2

CYP3A [3] = assay: CYP3A catalytic activity (erythromycin-N-demethylation), mouse hepatic microsomes; type: in vitro ADME; settings: for activity at 30 min, 12.5 µM / activity at 30 min, 25 µM: liver microsomes, pH 7.4, probe erythromycin, read-out: CYP3A catalytic activity, % of Control
Experimental: as §1
(§3) CYP3A catalytic activity was determined using the erythromycin-N-demethylation activity assay as described previously. The reaction mixture (final volume of 1 mL and final protein concentration of 1 mg) contained 500 µL of microsomes in 0.1 M phosphate buffer (pH = 7.4), 400 µL of erythromycin buffer (0.45 mM), and 50 µL of the test compound was pre-warmed at 37 °C for 2 min. The reaction was initiated with 50 µL of 2.5 mM […] and incubated at 37 °C for 30 min (optimised incubation time). The reaction was stopped with the addition of 330 µL of 15% zinc sulphate. Tubes were vortexed and left for 5 min (at room temperature) and then 330 µL of saturated barium hydroxide was added. Tubes were further vortexed and left for 5 min (at room temperature). Tubes were then centrifuged at 1800 g for 10 min. To 830 µL of the supernatant, 330 µL of Nash reagent (30% (w/v) ammonium acetate, 0.4% (v/v) acetyl acetone) was added and further incubated at 60 °C for 30 min. The blank tube contained 330 µL of Nash reagent and 830 µL of Milli-Q-water. The tubes were centrifuged again at 1800× g for 10 min and the absorbance was read at 415 nm. Results presented are the mean ± SEM of 3 independent experiments conducted in duplicate.

UGT [4] = assay: p-nitrophenol glucuronidation, rat hepatic microsomes; type: in vitro ADME
Experimental: as §1, §2

CYP3A [5] = assay: CYP3A catalytic activity (erythromycin-N-demethylation), rat hepatic microsomes; type: in vitro ADME; settings: for activity at 30 min, 12.5 µM / activity at 30 min, 25 µM: liver microsomes, pH 7.4, probe erythromycin, read-out: CYP3A catalytic activity, % of Control
Experimental: as §1, §3

CYP3A [6] = assay: CYP3A catalytic activity (erythromycin-N-demethylation), possum hepatic microsomes; type: in vitro ADME, possum (Trichosurus vulpecula); settings: for activity at 30 min, 12.5 µM / activity at 30 min, 25 µM: possum (Trichosurus vulpecula), liver microsomes, pH 7.4, probe erythromycin, read-out: CYP3A catalytic activity, % of Control
Experimental: as §1, §3

CYP3A [7] = settings: possum vs human liver microsomes; cited from earlier work

| Compound | p-nitrophenol glucuronidation activity (UGT [1]; 12.5 µM) | p-nitrophenol glucuronidation, % of Control (UGT [1]; 12.5 µM) | p-nitrophenol glucuronidation activity (UGT [1]; 25 µM) | p-nitrophenol glucuronidation, % of Control (UGT [1]; 25 µM) | p-nitrophenol glucuronidation activity (UGT [2]; 12.5 µM) | p-nitrophenol glucuronidation, % of Control (UGT [2]; 12.5 µM) | p-nitrophenol glucuronidation activity (UGT [2]; 25 µM) | p-nitrophenol glucuronidation, % of Control (UGT [2]; 25 µM) | CYP3A catalytic activity (CYP3A [3]; 12.5 µM) | CYP3A catalytic activity (CYP3A [3]; 25 µM) | activity at 30 min, 12.5 µM (CYP3A [3]; 12.5 µM) | activity at 30 min, 25 µM (CYP3A [3]; 25 µM) | p-nitrophenol glucuronidation activity (UGT [4]; 12.5 µM) | p-nitrophenol glucuronidation, % of Control (UGT [4]; 12.5 µM) | p-nitrophenol glucuronidation activity (UGT [4]; 25 µM) | p-nitrophenol glucuronidation, % of Control (UGT [4]; 25 µM) | CYP3A catalytic activity (CYP3A [5]; 12.5 µM) | CYP3A catalytic activity (CYP3A [5]; 25 µM) | CYP3A catalytic activity (CYP3A [6]; 12.5 µM) | CYP3A catalytic activity (CYP3A [6]; 25 µM) | other results |
| --- | --- | --- | --- | --- | --- | --- | --- | --- | --- | --- | --- | --- | --- | --- | --- | --- | --- | --- | --- | --- | --- |
| CC1(O)CCC(C(C)(C)O)CC1 (stereo in doubt) [Trans-terpin, trans-terpin] | 3.90 ± 0.34 µmol/mg/min | 99.53 ± 0.84% | 3.91 ± 0.34 µmol/mg/min | 99.77 ± 0.60% | 2.44 ± 0.06 µmol/mg/min | 101.67 ± 0.74% | 2.33 ± 0.07 µmol/mg/min | 97.15 ± 1.80% | 0.71 ± 0.03 nmol/mg/min | 0.70 ± 0.03 nmol/mg/min | 101 ± 2.7% | 99.64 ± 0.93% | 2.87 ± 0.22 µmol/mg/min | 104.14 ± 9.44% | 2.50 ± 0.10 µmol/mg/min | 90.51 ± 3.63% | 0.59 ± 0.04 nmol/mg/min | 0.60 ± 0.06 nmol/mg/min | 0.41 ± 0.02 nmol/mg/min | 0.40 ± 0.03 nmol/mg/min | activity at 30 min, 12.5 µM (CYP3A [5]; 12.5 µM): 98.3 ± 3.1%; activity at 30 min, 25 µM (CYP3A [5]; 25 µM): 99.3 ± 1%; activity at 30 min, 12.5 µM (CYP3A [6]; 12.5 µM): 106 ± 1.42%; activity at 30 min, 25 µM (CYP3A [6]; 25 µM): 103 ± 6.11% |
| Cc1ncc2n1-c1ccc(Cl)cc1C(c1ccccc1F)=NC2 [midazolam] | – | – | – | – | – | – | – | – | – | – | – | – | – | – | – | – | – | – | – | – | Vmax of 1′-hydroxylmiazolam, fold lower in possum than in human liver microsomes (CYP3A [7]): 8 fold; Vmax of 4-hydroxymidazolam, fold lower in possum than in human liver microsomes (CYP3A [7]): 23 fold |
| CCCCCC12CCC(C(=O)O)(CC1)CC2 [4-pentylbicyclo[2.2.2]octane-1-carboxylic acid] | 3.80 ± 0.27 µmol/mg/min | 98.44 ± 1.05% | 3.96 ± 0.17 µmol/mg/min | 102.71 ± 1.91% | 2.41 ± 0.06 µmol/mg/min | 98.73 ± 3.51% | 2.21 ± 0.14 µmol/mg/min | 90.15 ± 2.18 % | 0.61 ± 0.04 nmol/mg/min | 0.67 ± 0.01 nmol/mg/min | 96.3 ± 1.91% | 106 ± 2.97% | 2.88 ± 0.13 µmol/mg/min | 103.95 ± 3.65% | 2.82 ± 0.07 µmol/mg/min | 101.89 ± 3.31% | 0.56 ± 0.05 nmol/mg/min | 0.55 ± 0.06 nmol/mg/min | 0.40 ± 0.05 nmol/mg/min | 0.40 ± 0.02 nmol/mg/min | activity at 30 min, 12.5 µM (CYP3A [5]; 12.5 µM): 105 ± 3.3%; activity at 30 min, 25 µM (CYP3A [5]; 25 µM): 102 ± 2.42%; activity at 30 min, 12.5 µM (CYP3A [6]; 12.5 µM): 109 ± 3.58%; activity at 30 min, 25 µM (CYP3A [6]; 25 µM): 111 ± 7.26% |
| O=C(O)C1C2C=CC(C2)C1C(=O)O (stereo not drawn) [5-norbornen-2-endo-3-exo-dicarboxylic acid] | 3.90 ± 0.23 µmol/mg/min | 100.53 ± 2.09% | 3.91 ± 0.20 µmol/mg/min | 100.86 ± 1.90% | 2.23 ± 0.09 µmol/mg/min | 107.16 ± 4.97% | 2.23 ± 0.10 µmol/mg/min | 107.42 ± 3.63% | 0.73 ± 0.04 nmol/mg/min | 0.77 ± 0.03 nmol/mg/min | – | – | 2.85 ± 0.16 µmol/mg/min | 96.42 ± 1.23% | 2.92 ± 0.19 µmol/mg/min | 98.52 ± 2.14% | 0.65 ± 0.10 nmol/mg/min | 0.64 ± 0.09 nmol/mg/min | 0.39 ± 0.03 nmol/mg/min | 0.38 ± 0.02 nmol/mg/min | CYP3A catalytic activity, % of Control (CYP3A [3]; 12.5 µM): 96.48 ± 0.72%; CYP3A catalytic activity, % of Control (CYP3A [3]; 25 µM): 101.88 ± 0.75%; CYP3A catalytic activity, % of Control (CYP3A [5]; 12.5 µM): 107.52 ± 3.84%; CYP3A catalytic activity, % of Control (CYP3A [5]; 25 µM): 105.30 ± 2.08%; CYP3A catalytic activity, % of Control (CYP3A [6]; 12.5 µM): 98.90 ± 0.73%; CYP3A catalytic activity, % of Control (CYP3A [6]; 25 µM): 95.23 ± 3.85% |
| C[C@]12CC(=O)C[C@@]1(C)CC(=O)C2 [cis-1,5-dimethylbicyclo[3.3.0]octane-3,7-dione] | 3.77 ± 0.28 µmol/mg/min | 93.15 ± 4.58% | 3.78 ± 0.28 µmol/mg/min | 93.30 ± 4.13% | 2.56 ± 0.11 µmol/mg/min | 102.19 ± 2.82% | 2.40 ± 0.15 µmol/mg/min | 95.72 ± 2.42% | 0.71 ± 0.03 nmol/mg/min | 0.70 ± 0.03 nmol/mg/min | 101 ± 2.7% | 99.64 ± 0.93% | 2.58 ± 0.03 µmol/mg/min | 98.32 ± 3.38% | 2.56 ± 0.02 µmol/mg/min | 97.79 ± 2.87% | 0.59 ± 0.04 nmol/mg/min | 0.60 ± 0.06 nmol/mg/min | 0.41 ± 0.02 nmol/mg/min | 0.40 ± 0.03 nmol/mg/min | activity at 30 min, 12.5 µM (CYP3A [5]; 12.5 µM): 98.3 ± 3.1%; activity at 30 min, 25 µM (CYP3A [5]; 25 µM): 99.3 ± 1%; activity at 30 min, 12.5 µM (CYP3A [6]; 12.5 µM): 106 ± 1.42%; activity at 30 min, 25 µM (CYP3A [6]; 25 µM): 103 ± 6.11% |
| COC(=O)[C@H]1CC[C@H](C(=O)OC)CC1 [dimethyl-trans-cyclohexane-1,4-dicarboxylate] | 3.96 ± 0.20 µmol/mg/min | 102.94 ± 4.63% | 3.92 ± 0.19 µmol/mg/min | 101.67 ± 0.92% | 2.43 ± 0.06 µmol/mg/min | 107.00 ± 0.42% | 2.73 ± 0.12 µmol/mg/min | 120.23 ± 8.23 % | 0.72 ± 0.02 nmol/mg/min | 0.77 ± 0.05 nmol/mg/min | 100 ± 1.31% | 106 ± 4.88% | 2.71 ± 0.13 µmol/mg/min | 90.77 ± 2.49% | 2.83 ± 0.20 µmol/mg/min | 94.83 ± 5.80% | 0.64 ± 0.02 nmol/mg/min | 0.73 ± 0.06 nmol/mg/min | 0.39 ± 0.02 nmol/mg/min | 0.42 ± 0.03 nmol/mg/min | activity at 30 min, 12.5 µM (CYP3A [5]; 12.5 µM): 102 ± 2.42%; activity at 30 min, 25 µM (CYP3A [5]; 25 µM): 116 ± 5.35%; activity at 30 min, 12.5 µM (CYP3A [6]; 12.5 µM): 102 ± 4.76%; activity at 30 min, 25 µM (CYP3A [6]; 25 µM): 111 ± 6% |
